Data published in patent publication US20080051454A1, “Compositions and methods for transient receptor potential vanilloid (TRPV) channel mediated treatments” (The Board of Trustees Operating Michigan State University, priority 2006, published 2008).

Assays:
[1] = tested on: rats; assay: Mean arterial pressure before and after left renal pelvis perfusion (LRPP) treatments; assay type: in vivo, rat; details: for Mean arterial pressure, Treatment: after treatment; for Mean arterial pressure, Baseline: before treatment
Excerpt: Urine flow rate (V, FIG. 3a) and urinary sodium excretion (UNaV, FIG. 3b) of the contralateral kidney are shown (n=5-6 in each group). +vs baseline and all other groups, +p<0.05.

[2] = tested on: TRPV1−/− hearts; assay: Preconditioning (PC) protection against I/R in Langendorff hearts with receptor antagonists, TRPV1-null; set-up: species or system mouse; details: CAPZ 10^−7 M, CGRP8-37 10^−6 M, RP67580 10^−7 M
Method: Male TRPV1 gene knockout (TRPV1-/-) strain B6.129S[…][…]^tm1Jul and matching control wild type (WT) strain C57BL/6J mice were used (Jackson Laboratory, Bar Harbor, Me.). Mice were heparinized (500 U/kg i.p.) and anesthetized with pentobarbital sodium (50 mg/kg i.p.). […] The distal end of the catheter was connected to a […] Performance Analyzer via a pressure transducer. Coronary flow (CF) was continuously measured using an ultrasonic flow probe placed in the aortic perfusion line. Hearts were paced at 400 bpm except during ischemic PC and sustained global ischemia to avoid inducing excessive ventricular tachyarrhythmia during reperfusion, and pacing was reinitiated 2 minutes after reperfusion. Left ventricular developed pressure (LVDP, peak systolic minuses LVEDP) and LV peak positive […]) during isovolumic contraction were used as indices of LV systolic function; LVEDP and the peak negative […] used as indices of LV diastolic function. […] Non-preconditioned hearts were time-matched perfused with the same duration as that of preconditioned hearts. Group 1: Controls. As normal controls (nonischemic), WT and TRPV1-/- hearts were perfused for 130 minutes. For I/R controls, WT and TRPV1-/- hearts were first perfused with Krebs-Henseleit buffer for 55 min (time-matched perfusion of the equilibration period plus the PC period), and subsequently subjected to 30 minutes of no-flow normothermic global ischemia followed by 40-minutes of reperfusion. Group 2: PC. […] The hearts were subjected to 30 minutes of no-flow normothermic global ischemia followed by 40-minutes of reperfusion as that of I/R control groups. Group 3: PC plus capsazepine (CAPZ). […] Two additional concentrations of CAPZ, 10^-6M and 10^-8 M, were used in WT hearts. An additional drug control was added. After a 20-minute equilibration period, WT hearts were perfused with CAPZ (10^-7 M) for 10 minutes without PC, followed by perfusion with Krebs-Henseleit buffer for 25 minutes (time-matched perfusion of the PC period) and then subjected to I/R. Group 4: […] […]

[3] = tested on: WT hearts; assay: Preconditioning (PC) protection against I/R in Langendorff hearts with receptor antagonists, wild type; set-up: species or system mouse
Method: Male TRPV1 gene knockout (TRPV1-/-) strain B6.129S[…][…]^tm1Jul and matching control wild type (WT) strain C57BL/6J mice were used (Jackson Laboratory, Bar Harbor, Me.). Mice were heparinized (500 U/kg i.p.) and anesthetized with pentobarbital sodium (50 mg/kg i.p.). […] The distal end of the catheter was connected to a […] Performance Analyzer via a pressure transducer. Coronary flow (CF) was continuously measured using an ultrasonic flow probe placed in the aortic perfusion line. Hearts were paced at 400 bpm except during ischemic PC and sustained global ischemia to avoid inducing excessive ventricular tachyarrhythmia during reperfusion, and pacing was reinitiated 2 minutes after reperfusion. Left ventricular developed pressure (LVDP, peak systolic minuses LVEDP) and LV peak positive […]) during isovolumic contraction were used as indices of LV systolic function; LVEDP and the peak negative […] used as indices of LV diastolic function. […] Non-preconditioned hearts were time-matched perfused with the same duration as that of preconditioned hearts. Group 1: Controls. As normal controls (nonischemic), WT and TRPV1-/- hearts were perfused for 130 minutes. For I/R controls, WT and TRPV1-/- hearts were first perfused with Krebs-Henseleit buffer for 55 min (time-matched perfusion of the equilibration period plus the PC period), and subsequently subjected to 30 minutes of no-flow normothermic global ischemia followed by 40-minutes of reperfusion. Group 2: PC. […] The hearts were subjected to 30 minutes of no-flow normothermic global ischemia followed by 40-minutes of reperfusion as that of I/R control groups. Group 3: PC plus capsazepine (CAPZ). […] Two additional concentrations of CAPZ, 10^-6M and 10^-8 M, were used in WT hearts. An additional drug control was added. After a 20-minute equilibration period, WT hearts were perfused with CAPZ (10^-7 M) for 10 minutes without PC, followed by perfusion with Krebs-Henseleit buffer for 25 minutes (time-matched perfusion of the PC period) and then subjected to I/R. Group 4: […] Two additional concentrations of CGRP8-37, 10^-5 M and 10^-7 M, were used in WT hearts. An additional drug control of CGRP8-37 was added as that of the CAPZ control group. Group 5: PC plus RP67580. To determine the role of endogenous SP during PC, hearts from WT and TRPV1-/-mice were perfused as that of CAPZ with RP67580 (10^-7 M), a selective neurokinin-1 (NK1) receptor antagonist. Two additional concentrations of RP67580, 10^-6 M and 10^-8 M, were used in WT hearts. An additional drug control of RP67580 was added as that of the CAPZ control group.

[4] = tested on: hearts of WT mice; assay: Langendorff perfused heart, ischemia and reperfusion (I/R) with OLDA, wild type; set-up: species or system mouse; details: antagonist 1×10^−6 M
Method: The following measurements were made on the two types of heart tissue: left ventricular end-diastolic pressure (LVEDP), left ventricular developed pressure (LVDP), coronary flow (CF), and left ventricular (LV) peak positive rate of pressure change/rate of time change (+dP/dt) were evaluated after I/R.

[5] = tested on: male Wistar rats; assay: Depressor effect of 20-HETE analog DSR given IV, with or without antagonists; assay type: in vivo, rat; details: DSR 1 mg/kg with CAPZ 3 mg/kg, RP67580 4 mg/kg or CGRP 8-37 3 mg/kg
[6] = tested on: WT hearts; assay: Lactate dehydrogenase (LDH) release during I/R; set-up: species or system mouse
Method: Lactate dehydrogenase (LDH) release: In addition to the measurement of cardiac function, cardiac injury was assessed by measuring LDH release. Perfusion effluent was collected during the first 10 minutes to 20 minutes of I/R and stored at […] until analyzed. Total LDH levels were determined with the use of a CytoTox 96 assay (Promega). The data were expressed as absorbance units released per milliliter per minute per gram of heart wet tissues (Turnbull et al., Am J Physiol Heart Circ Physiol 290: […]-9, 2006; herein incorporated by reference).

[7] = tested on: Wistar rats (Con-NS, Con-HS, Cap-NS, Cap-HS); assay: Natriuretic, diuretic and depressor effects of i.v. diuretics in control and capsaicin-pretreated rats on normal or high sodium diet; assay type: in vivo, rat; details: intravenous
Method: (a) Urine flow rate. (b) Urine sodium excretion. […] (c) Mean arterial pressure. […] Vehicle; trichlormethiazide.
(a) Urine flow rate. (b) Urine sodium excretion. […] (c) Mean arterial pressure.
(a) Urine flow rate. (b) Urine sodium excretion. […] (c) Mean arterial pressure. […] Vehicle; amiloride.
Design and methods Neonatal Wistar rats were treated with capsaicin or vehicle. Seven-week-old male rats were treated for 2 weeks with: vehicle plus a normal (Con-NS) or high (Con-HS) sodium diet, and capsaicin pretreatment plus a normal (Cap-NS) or high (Cap-HS) sodium diet. Mean arterial pressure (MAP), renal excretory function, and protein expression determined by Western blot were performed.

[Cl-].[K+] [150 KCl, KCl]
Mean arterial pressure, Treatment [1]: 125 ± 4 mmHg | Mean arterial pressure, Baseline [1]: 123 ± 6 mmHg

[Cl-].[Na+] [600 mM NaCl, NaCl]
Mean arterial pressure, Treatment [1]: 117 ± 2 mmHg | Mean arterial pressure, Baseline [1]: 115 ± 2 mmHg

OC[C@@H](O)[C@@H](O)[C@H](O)[C@H](O)CO [1200 mOsm Mannitol, Mannitol]
Mean arterial pressure, Treatment [1]: 121 ± 7 mmHg | Mean arterial pressure, Baseline [1]: 121 ± 6 mmHg

COc1ccccc1CC(=N)N1C[C@@H]2C(=O)CCC(c3ccccc3)(c3ccccc3)[C@@H]2C1 [RP67580]
effect on these parameters in TRPV1−/− hearts [2]: no effect | effect on cardiac function in WT hearts without I/R [3]: no effect on cardiac function | effect on PC-induced cardiac protection (LVEDP, LVDP, CF, +dP/dt, −dP/dt) in WT hearts ([3]; CAPZ 10^−7 M, CGRP8-37 10^−6 M, RP67580 10^−7 M): abolished | effect on CF in WT hearts ([3]; PC plus I/R): no effect on CF | effect on protective effect of OLDA in WT hearts [4]: abolished | DSR induced-depressor effect after antagonist [5]: 9.4±2.3 mmHg | effect on PC protection assessed by LDH levels after I/R in WT hearts [6]: abolished

N=C(N)NC(=O)c1nc(Cl)c(N)nc1N [amiloride]
effect on MAP (words) [7]: no effect on MAP in any group | time of peak urine flow rate (UFR) after injection [7]: 10 min | urine flow / urine sodium excretion (words) [7]: significantly increased | effect on MAP (words) ([7]; listed as Amiloride): no effect | urine flow / urine sodium excretion (words) ([7]; listed as Amiloride): no effect
